Experimental data from paper PMC7822065, “Discovery of indole-3-butyric acid derivatives as potent histone deacetylase inhibitors” (Journal of Enzyme Inhibition and Medicinal Chemistry, 2021).

Columns and labels:
[1] = test system: U937 cells; test: MTT antiproliferative assay, U937; conditions: Homo sapiens, U-937, 48 h, read-out: U937 IC50
Procedure: (§1) The stock solutions of tested compounds were diluted with culture medium. […] Then, the cells were treated with compound sample at various concentrations for 48 h. Afterward, 20 MTT working solution (5 mg/ml) was added to each well and incubated for another 4 h. After incubation, the medium formed from MTT was extracted by adding DMSO (200 µl). The optical density (OD) at 490 nm and 630 nm were measured by Universal Microplate Spectrophotometer. […] The IC50 values were calculated with Origin 7.5 software (Originlab Corporation, Northampton, MA), and standard deviations of the IC50 values were obtained through at least 3 independent experiments.

[2] = test system: HDACs (HeLa nucleus extract containing a mixture of HDAC isoforms); test: HDAC inhibitory assay with HeLa nucleus extract; conditions: at the concentration of 1 µM
[3] = test system: U266 cells; test: MTT antiproliferative assay, U266; conditions: Homo sapiens, U-266, 48 h, read-out: U266 IC50
Procedure: as §1
To evaluate the antiproliferative activity of hydroxamic acid containing molecules, MTT assays were performed using U937, U266, and HepG2 cell lines.

[4] = test system: HepG2 cells; test: MTT antiproliferative assay, HepG2; conditions: Homo sapiens, HepG2, 48 h, read-out: HepG2 IC50
Procedure: as §1

[5] = test system: HepG2 xenograft; conditions: 100 mg/kg/d intragastric, 16 days, HepG2 xenograft, n = 7
[6] = test system: A2780 cells; test: MTT antiproliferative assay, A2780; assay type: cell-based; conditions: Homo sapiens, A2780, read-out: A2780 IC50
Procedure: The stock solutions of tested compounds were diluted with culture medium. Briefly, the cells were seeded into each well of 96-well plate, which were incubated at 37 °C, 5% CO2 until confluency 90–95%. Then, the cells were treated with compound sample at various concentrations for 48 h. Afterward, […] working solution (5 mg/ml) was added to each well and incubated for another 4 h. After incubation, the […] formed from MTT was extracted by adding DMSO (200 µl). The optical density (OD) at 490 nm and 630 nm were measured by Universal Microplate Spectrophotometer. […] The IC50 values were calculated with Origin 7.5 software (Originlab Corporation, Northampton, MA), and standard deviations of the IC50 values were obtained through at least 3 independent experiments.
A series of tumour cell lines including the lung cancer A549, Calu-3, SPC-A-1, H322, H1299, breast cancer MDA-MB-231, MCF-7, MDA-MB-468, colon carcinoma LoVo, Colo205, ovarian cancer A2780, SKOV3, gastric cancer MKN45, pancreatic cancer PNAC-1, leukemic K562, and multiple myeloma OPM2 cells were cultured for the antiproliferative assay of active compound I13. In the present study, molecule I13 could inhibit the growth of both solid and haematologic tumour cell lines (Table 4). […]. The antiproliferative activity of molecule I13 was considered to be restricted by the poor enzyme inhibitory selectivity. Enhancement of selectivity could be a useful strategy to improve the anticancer activity of this group of HDACIs.

[7] = test system: HepG2 cells; test: Annexin V/PI cell apoptosis assay (flow cytometry); conditions: annexin V-FITC/PI
Procedure: After 10 min of incubation, 1 µl PI was added to each sample and mixed gently. After incubation at room temperature for another 20 min in the dark, cells were subjected to flow cytometer (CytoFLEX, Beckman Coulter, Brea, CA).

Compound	IC50 [1] [nM]	IC50 [3] [nM]	IC50 [4] [nM]	HDACs, percentage inhibition rate (PIR) [2] [%]	further results
O=C(CCCc1cn(Cc2ccc(F)c(F)c2)c2ccccc12)Nc1ccc(C(=O)NO)cc1 [Compound I6, 4-(4-(1-(3,4-Difluoro-benzyl)-1H-indol-3-yl)butanamido)-N-hydroxybenzamide]	1250 ± 210	820 ± 60	7720 ± 340	16.14 ± 1.07	–
O=C(CCCc1cn(Cc2cccc(F)c2)c2ccccc12)Nc1ccc(C(=O)NO)cc1 [Compound I7, 4-(4-(1-(3-Fluoro-benzyl)-1H-indol-3-yl)butanamido)-N-hydroxybenzamide]	950 ± 10	840 ± 60	4870 ± 120	46.17 ± 2.94	–
O=C(CCCc1cn(Cc2cccc(Br)c2)c2ccccc12)Nc1ccc(C(=O)NO)cc1 [Compound I8, 4-(4-(1-(3-Bromo-benzyl)-1H-indol-3-yl)butanamido)-N-hydroxybenzamide]	1940 ± 170	710 ± 60	6450 ± 280	15.87 ± 3.27	–
O=C(CCCc1cn(Cc2cccc(Cl)c2)c2ccccc12)Nc1ccc(C(=O)NO)cc1 [Compound I9, 4-(4-(1-(3-Chloro-benzyl)-1H-indol-3-yl)butanamido)-N-hydroxybenzamide]	1000 ± 150	650 ± 40	5670 ± 60	56.68 ± 2.42	–
CCCCn1cc(CCCC(=O)Nc2ccc(C(=O)NO)cc2)c2ccccc21 [Compound I12, 4-(4-(1-Butyl-1H-indol-3-yl)butanamido)-N-hydroxybenzamide]	1010 ± 30	120 ± 20	5760 ± 650	62.70 ± 1.63	–
O=C(CCCCCCC(=O)Nc1ccccc1)NO [SAHA, Suberoylanilide hydroxamic acid, reference compound]	–	–	–	–	mean weight of tumours [5]: 0.322 g; IC50 [6]: 27300 nM; flow cytometry quadrant Q1-LL ([7]; HepG2, 0.2 μM): 88.86%; flow cytometry quadrant Q1-LR ([7]; HepG2, 0.2 μM): 5.30%; flow cytometry quadrant Q1-UL ([7]; HepG2, 0.2 μM): 0.05%; flow cytometry quadrant Q1-UR ([7]; HepG2, 0.2 μM): 5.79%; flow cytometry quadrant Q1-LL ([7]; HepG2, 0.8 μM): 86.03%; flow cytometry quadrant Q1-LR ([7]; HepG2, 0.8 μM): 7.73%; flow cytometry quadrant Q1-UL ([7]; HepG2, 0.8 μM): 0.01%; flow cytometry quadrant Q1-UR ([7]; HepG2, 0.8 μM): 6.23%

More lines, in order of falling IC50 [1], values ahead:

IC50 [1] [nM]	IC50 [3] [nM]	IC50 [4] [nM]	Compound	HDACs, percentage inhibition rate (PIR) [2] [%]	further results
4580 ± 230	740 ± 50	4760 ± 610	O=C(CCCc1cn(Cc2cc(C(F)(F)F)cc(C(F)(F)F)c2)c2ccccc12)Nc1ccc(C(=O)NO)cc1 [Compound I11, 4-(4-(1-(3,5-Bis-trifluoromethyl-benzyl)-1H-indol-3-yl)butanamido)-N-hydroxybenzamide]	52.24 ± 1.10	–
4420 ± 180	880 ± 70	6170 ± 210	O=C(CCCc1cn(Cc2ccccc2C(F)(F)F)c2ccccc12)Nc1ccc(C(=O)NO)cc1 [Compound I5, 4-(4-(1-(2-Trifluoromethyl-benzyl)-1H-indol-3-yl)butanamido)-N-hydroxybenzamide]	19.30 ± 1.60	–
1020 ± 130	840 ± 90	8980 ± 160	O=C(CCCc1c[nH]c2ccccc12)Nc1ccc(C(=O)NO)cc1 [Compound I1, 4-(4-(1H-indol-3-yl)butanamido)-N-hydroxybenzamide]	53.81 ± 1.60	–
970 ± 40	960 ± 80	4450 ± 250	O=C(CCCc1cn(Cc2ccc(C(F)(F)F)cc2)c2ccccc12)Nc1ccc(C(=O)NO)cc1 [Compound I4, 4-(4-(1-(4-Trifluoromethyl-benzyl)-1H-indol-3-yl)butanamido)-N-hydroxybenzamide]	68.50 ± 1.22	–
950 ± 40	480 ± 90	3630 ± 260	O=C(CCCc1cn(Cc2ccccc2)c2ccccc12)Nc1ccc(C(=O)NO)cc1 [Compound I2, 4-(4-(1-benzyl-1H-indol-3-yl)butanamido)-N-hydroxybenzamide]	78.94 ± 3.41	–
940 ± 40	240 ± 30	1920 ± 50	CCn1cc(CCCC(=O)Nc2ccc(C(=O)NO)cc2)c2ccccc21 [Compound I3, 4-(4-(1-Ethyl-1H-indol-3-yl)butanamido)-N-hydroxybenzamide]	78.94 ± 2.34	–
630 ± 70	160 ± 70	3390 ± 250	O=C(CCCc1cn(Cc2c(F)cccc2F)c2ccccc12)Nc1ccc(C(=O)NO)cc1 [Compound I10, 4-(4-(1-(2,6-Difluoro-benzyl)-1H-indol-3-yl)butanamido)-N-hydroxybenzamide]	79.10 ± 4.65	–
